Molecular target: T1, hAGT (Homo sapiens, UniProt P16455)
T1 construct: gene MGMT; parental hAGT
T1 sequence (P16455 1-207): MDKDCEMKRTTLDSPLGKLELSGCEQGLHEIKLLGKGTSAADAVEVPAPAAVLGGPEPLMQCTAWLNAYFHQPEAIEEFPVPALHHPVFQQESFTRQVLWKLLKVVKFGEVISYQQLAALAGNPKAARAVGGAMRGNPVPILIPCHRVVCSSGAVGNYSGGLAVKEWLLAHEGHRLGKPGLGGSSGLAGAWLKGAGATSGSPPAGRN
Experiment: biochemical
Set-up: fluorescence polarization labeling kinetics of purified tag proteins with TMR substrates, apparent second-order rate constant
Conditions: read-out: hAGT kapp x 10^3

| SMILES | kinact/KI [M⁻¹ s⁻¹] |
| --- | --- |
| CN(C)c1ccc2c(-c3cc(C(=O)NCc4ccc(COc5cc(Cl)nc(N)n5)cc4)ccc3C(=O)[O-])c3ccc(=[N+](C)C)cc-3oc2c1 [CP–TMR] | 800 ± 40 |
| CN(C)c1ccc2c(-c3cc(C(=O)NCc4ccc(COc5cc(C(F)(F)F)nc(N)n5)cc4)ccc3C(=O)[O-])c3ccc(=[N+](C)C)cc-3oc2c1 [compound 4, CF3P–TMR] | 640 ± 40 |
| CN(C)c1ccc2c(-c3cc(C(=O)NCc4ccc(COc5cc(Cl)nc(N)n5)cc4F)ccc3C(=O)[O-])c3ccc(=[N+](C)C)cc-3oc2c1 [compound 22, CF–TMR] | 550 ± 50 |
| CN(C)c1ccc2c(-c3cc(C(=O)NCc4ccc(COc5cc(C(F)(F)F)nc(N)n5)cc4F)ccc3C(=O)[O-])c3ccc(=[N+](C)C)cc-3oc2c1 [compound 30, TF–TMR] | 520 ± 60 |
